Data reported in US20010051181A1, “NOVEL FORMULATIONS FOR THE TRANSDERMAL ADMINISTRATION OF ASIMADOLINE” (priority 1997, published 2001).
Where a name gives a salt, the structure may show the parent alone.

Test: in vitro skin flux of asimadoline through human cadaver epidermis
Format: in vitro ADME
Details: representative range; depending on the drug form, permeation enhancer, and if an in-line adhesive is present
Procedure: Release of asimadoline from transdermal systems into aqueous medium was measured over 24 hours at 35° C. Each system had its exposed edges masked. The systems were then mounted on a Teflon® holder of a release rate rod using nylon mesh and nickel wire. A known volume of receptor solution (50 mM Na2PO4, pH 5.5) was then placed in a test tube and equilibrated at 35° C. The test tube was placed in a water bath and maintained at 35° C. The Teflon rod with attached system was then reciprocated within the test tube by attaching the rod to a motor which caused constant vertical mixing.
At given time intervals, the entire receptor solution was removed from the test tubes and replaced with an equal volume of fresh receptor solutions previously equilibrated at 35° C. The receptor solutions were stored in capped vials at 4° C. until assayed for asimadoline content by HPLC. From the drug concentration and the volume of the receptor solutions, the area of the system and the time interval, the release rate of the drug from the system was calculated as follows: (drug concentration×volume of receptor)/(area×time)=release rate (μg/cm^2 hr). […]
Transdermal systems set forth in Table 1 were prepared according to Example 1 and used to measure permeation through human cadaver skin. […] Asimadoline permeation through the epidermis was then measured according to the procedure set forth in Example 1. […]

For `CN(C(=O)C(c1ccccc1)c1ccccc1)[C@H](CN1CC[C@H](O)C1)c1ccccc1` [asimadoline hydrochloride, N-[(aS)-α-[[(3S)-3-Hydroxy-1-pyrrolidinyl]methyl]benzyl]-N-methyl-2,2-diphenylacetamide], the “in vitro skin flux through human skin” value was 0.2-10 mg/cm^2·hr.
